US20130053243A1, “PLANTS HAVING INCREASED TOLERANCE TO HERBICIDES” (BASF SE, priority 2010, published 2013)
Like-named read-outs stand apart in the source and are kept apart here.

How the values were obtained:
Arabidopsis HPPD = molecular target: T1, Arabidopsis HPPD (Arabidopsis thaliana, UniProt P93836); assay: HPPD activity assay (homogentisic acid by HPLC), wildtype enzyme; assay type: biochemical; conditions: Table 11, calculated from IC50 with Cheng-Prusoff equation, read-out: dissociation constant Ki
T1 construct: His6 (N); made in house; host or cells: E. coli BL21 (DE3)
T1 sequence (P93836 1-445): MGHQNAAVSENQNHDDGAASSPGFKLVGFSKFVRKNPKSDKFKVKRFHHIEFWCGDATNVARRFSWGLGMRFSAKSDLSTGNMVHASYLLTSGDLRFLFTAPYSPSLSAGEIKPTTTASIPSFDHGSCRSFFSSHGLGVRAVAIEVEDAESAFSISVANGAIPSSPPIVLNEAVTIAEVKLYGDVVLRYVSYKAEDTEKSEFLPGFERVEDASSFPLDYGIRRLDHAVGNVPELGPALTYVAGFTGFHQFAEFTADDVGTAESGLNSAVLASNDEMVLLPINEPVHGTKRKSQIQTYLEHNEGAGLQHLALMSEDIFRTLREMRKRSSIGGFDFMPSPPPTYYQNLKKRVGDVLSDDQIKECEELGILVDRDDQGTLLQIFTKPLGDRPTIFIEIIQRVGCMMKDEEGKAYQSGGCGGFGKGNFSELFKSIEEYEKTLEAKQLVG
Procedure: (§1) HPPD produces homogentisic acid and CO2 from 4-hydroxyphenylpyruvate (4-HPP) and O2. The activity assay for HPPD is based on the analysis of homogentisic acid by reversed phase HPLC.
(§2) The assay mixture can contain 150 mM potassium phosphate buffer pH 7.0, 50 mM L-ascorbic acid, 1 μM FeSO4 and 7 μg of purified enzyme in a total volume of 1 ml.
(§3) Inhibitors are dissolved in DMSO (dimethylsulfoxide) to a concentration of 20 mM or 0.5 mM, respectively. From this stock solution serial five-fold dilutions are prepared in DMSO, which are used in the assay. The respective inhibitor solution accounts for 1% of the assay volume. Thus, final inhibitor concentrations range from 200 μM to 2.5 nM or from 5 μM to 63 pM, respectively.
(§4) After a preincubation of 30 min the reaction is started by adding 4-HPP to a final concentration of 0.1 mM. The reaction is allowed to proceed for 120 min at room temperature. The reaction is stopped by addition of 100 μl of 4.5 M phosphoric acid.
The sample is extracted on an Oasis® HLB cartridge 3 cc/60 mg (Waters) that was preequilibrated with 63 mM phosphoric acid. L-ascorbic acid is washed out with 3 ml of 63 mM phosphoric acid. […]
(§5) 10 μl of the eluate is analyzed by reversed phase HPLC on a Symmetry® C18 column (particle size 3.5 μm, dimensions 4.6×100 mm; Waters) using 5 mM H3PO4/15% ethanol (w/w) as an eluent.
(§6) Homogentisic acid is detected electrochemically and quantified by measuring peak areas (Empower software; Waters).
Activities are normalized by setting the uninhibited enzyme activity to 100%. IC50 values are calculated using non-linear regression. […]
(§7) 5 μl of the cleared sample is analyzed on an Atlantis T3 column (particle size 3 μm, dimensions 3×50 mm; Waters) by isocratic elution using 90% 10 mM NaH2PO4 pH 2.2, 10% methanol (v/v).
(§8) HGA is detected electrochemically at 750 mV (mode: DC; polarity: positive) and quantified by integrating peak areas (Empower software; Waters).
Inhibitors are dissolved in DMSO (dimethylsulfoxide) to a concentration of 0.5 mM. […] IC50 values are calculated using non-linear regression. […]

Chlamydomonas HPPD1 = Chlamydomonas HPPD1 (Chlamydomonas reinhardtii, UniProt A0A2K3DET7); assay: HPPD activity assay, wildtype enzyme; assay type: biochemical; conditions: calculated from IC50 with Cheng-Prusoff equation, read-out: dissociation constant Ki
Chain of Chlamydomonas HPPD1 (A0A2K3DET7 entry or part of it): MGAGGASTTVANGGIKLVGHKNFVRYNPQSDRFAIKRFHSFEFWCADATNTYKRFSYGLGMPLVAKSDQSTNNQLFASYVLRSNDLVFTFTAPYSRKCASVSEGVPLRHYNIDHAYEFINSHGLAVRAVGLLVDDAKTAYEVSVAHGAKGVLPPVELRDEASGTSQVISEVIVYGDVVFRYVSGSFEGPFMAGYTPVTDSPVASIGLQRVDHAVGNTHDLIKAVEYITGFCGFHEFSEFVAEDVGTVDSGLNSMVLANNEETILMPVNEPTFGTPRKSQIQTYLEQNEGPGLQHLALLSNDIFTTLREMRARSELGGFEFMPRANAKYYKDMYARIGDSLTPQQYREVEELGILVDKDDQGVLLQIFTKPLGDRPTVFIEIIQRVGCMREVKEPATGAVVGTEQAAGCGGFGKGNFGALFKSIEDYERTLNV
Procedure: as §1, §2
Inhibitors are dissolved in DMSO (dimethylsulfoxide) to a concentration of 20 mM or 0.5 mM, respectively. From this stock solution serial five-fold dilutions are prepared in DMSO, which are used in the assay. The respective inhibitor solution accounts for 1% of the assay volume.
as §4
(§9) Activities are normalized by setting the uninhibited enzyme activity to 100%. IC50 values are calculated using non-linear regression.
The assay mixture can contain 150 mM potassium phosphate buffer pH 7.0, 50 mM L-ascorbic acid, 100 μM Catalase (Sigma-Aldrich), 1 μM FeSO4 and 0.2 units of purified HPPD enzyme in a total volume of 505 μl. […]
as §8
Inhibitors are dissolved in DMSO (dimethylsulfoxide) to a concentration of 0.5 mM. […] IC50 values are calculated using non-linear regression.
Using methods which are described in the above examples or well known in the art, purified, recombinant wildtype HPPD enzymes are characterized with respect to their kinetic properties and sensitivity towards HPPD inhibiting herbicides. Apparent michaelis constants (Km) and maximal reaction velocities (Vmax) are calculated by non-linear regression with the software GraphPad Prism 5 (GraphPad Software, La Jolla, USA) using a substrate inhibition model. […] Weighted means (by standard error) of Km and IC50 values are calculated from at least three independent experiments.

[1] = molecular target: T2, Arabidopsis HPPD variant Q293H (Arabidopsis thaliana, UniProt P93836, Q293H); assay: HPPD activity assay, mutant enzyme; assay type: biochemical
T2 construct: His6 (N); made in house; host or cells: E. coli BL21 (DE3)
T2 sequence (P93836 whole entry Q293H): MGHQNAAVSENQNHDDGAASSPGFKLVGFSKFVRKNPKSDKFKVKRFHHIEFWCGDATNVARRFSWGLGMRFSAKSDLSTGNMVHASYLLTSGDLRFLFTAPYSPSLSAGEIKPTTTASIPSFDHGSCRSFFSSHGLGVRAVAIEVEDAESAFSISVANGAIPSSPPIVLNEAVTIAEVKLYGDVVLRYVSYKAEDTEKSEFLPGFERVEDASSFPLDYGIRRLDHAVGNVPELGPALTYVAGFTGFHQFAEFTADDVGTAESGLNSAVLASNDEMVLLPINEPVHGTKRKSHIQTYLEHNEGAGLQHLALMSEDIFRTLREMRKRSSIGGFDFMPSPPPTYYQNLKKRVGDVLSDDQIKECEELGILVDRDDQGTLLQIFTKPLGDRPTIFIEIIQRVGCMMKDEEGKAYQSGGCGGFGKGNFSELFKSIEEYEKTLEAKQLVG
Procedure: as §1, §2, §3, §4
(§10) The sample is extracted on an Oasis® HLB cartridge 3 cc/60 mg (Waters) that was preequilibrated with 63 mM phosphoric acid. L-ascorbic acid is washed out with 3 ml of 63 mM phosphoric acid. Homogentisate is eluted with 1 ml of a 1:1 mixture of 63 mM phosphoric acid and methanol (w/w).
as §5, §6, §9
(§11) The assay mixture can contain 150 mM potassium phosphate buffer pH 7.0, 50 mM L-ascorbic acid, 100 μM Catalase (Sigma-Aldrich), 1 μM FeSO4 and 0.2 units of purified HPPD enzyme in a total volume of 505 μl. 1 unit is defined as the amount of enzyme that is required to produce 1 nmol of HGA per minute at 20° C.
(§12) After a preincubation of 30 min the reaction is started by adding 4-HPP to a final concentration of 0.05 mM. The reaction is allowed to proceed for 45 min at room temperature. The reaction is stopped by the addition of 50 μl of 4.5 M phosphoric acid. The sample is filtered using a […] pore size PVDF filtration device.
as §7, §8
(§13) Inhibitors are dissolved in DMSO (dimethylsulfoxide) to a concentration of 0.5 mM. From this stock solution serial five-fold dilutions are prepared in DMSO, which are used in the assay. The respective inhibitor solution accounts for 1% of the assay volume. Thus, final inhibitor concentrations range from 5 μM to 320 pM, respectively. Activities are normalized by setting the uninhibited enzyme activity to 100%. IC50 values are calculated using non-linear regression.
(§14) Purified, mutant HPPD enzymes are obtained by the methods described above. Dose response and kinetic measurements are carried out using the described HPPD activity assay. Apparent michaelis constants (Km) and maximal reaction velocities (Vmax) are calculated by non-linear regression with the software GraphPad Prism 5 (GraphPad Software, La Jolla, USA) using a substrate inhibition model. Apparent kcat values are calculated from Vmax assuming 100% purity of the enzyme preparation. Weighted means (by standard error) of Km and IC50 values are calculated from at least three independent experiments. The Cheng-Prusoff equation for competitive inhibition (Cheng, Y. C.; Prusoff, W. H. Biochem Pharmacol 1973, 22, 3099-3108) is used to calculate dissociation constants (Ki). Examples of the data obtained are depicted in Table 13.

[2] = molecular target: T3, Arabidopsis HPPD variant Q293N (Arabidopsis thaliana, UniProt P93836, Q293N); assay: HPPD activity assay, mutant enzyme; assay type: biochemical
T3 construct: His6 (N); made in house; host or cells: E. coli BL21 (DE3)
T3 sequence (P93836 whole entry Q293N): as the sequence (P93836 whole entry Q293H) above, with H293N counted along it
Procedure: as §1, §2, §3, §4, §10, §5, §6, §9, §11, §12, §7, §8, §13, §14

[3] = system: Chlamydomonas strain CC1961 wild-type; assay: Growth inhibition of Chlamydomonas strains (tolerance); assay type: cell-based, Chlamydomonas reinhardtii; conditions: read-out: IC50 of growth inhibition
Procedure: (§15) Algae cells of Chlamydomonas reinhardtii strains CC-503 and CC-1691 (Duke University, Durham, USA) are propagated in TAP medium (Gorman and Levine (1965) PNAS 54: 1665-1669) by constant shaking at 100 rpm, 22° C. and 30 μmol Phot*m^−2*[…] light illumination. Scenedesmus obliquus (University of Gottingen, Germany) are propagated in algae medium as described (Boger and Sandmann, (1993) In: Target assays for modern herbicides and related phytotoxic compounds, Lewis Publishers) under same culturing conditions as mentioned for Chlamydomonas. Compound screening is performed at 450 μmol Phot*m^−2*[…] illumination.
(§16) Sensitive strains of Chlamydomonas reinhardtii or Scenedesmus obliquus (Tables 14, 15) are mutated with 0.14 […] (EMS) for 1 h as described by Loppes (1969, Mol Gen Genet. 104: 172-177) Tolerant strains are identified by screening of mutagenized cells on solid nutrient solution plates containing “coumarone-derivative herbicides” or other HPPD inhibiting herbicides at wildype-lethal concentrations. Examples of the data obtained are depicted in Table 16 and FIG. 2.

[4] = system: Chlamydomonas strain CMr04; assay: as above; assay type: cell-based, Chlamydomonas reinhardtii
Procedure: as §15, §16

[5] = system: Chlamydomonas strain CMr05; assay: as above; assay type: cell-based, Chlamydomonas reinhardtii
Procedure: as §15, §16

[6] = system: Chlamydomonas strain CMr06; assay: as above; assay type: cell-based, Chlamydomonas reinhardtii
Procedure: as §15, §16

[7] = system: Chlamydomonas strain CMr10; assay: as above; assay type: cell-based, Chlamydomonas reinhardtii; conditions: read-out: IC50 of growth inhibition
Procedure: as §15, §16

[8] = system: Chlamydomonas strain CMr13; assay: as above; assay type: cell-based, Chlamydomonas reinhardtii; conditions: read-out: IC50 of growth inhibition
Procedure: as §15, §16

[9] = system: Chlamydomonas strain CMr15; assay: as above; assay type: cell-based, Chlamydomonas reinhardtii
Procedure: as §15, §16

C. reinhardtii (CC-503) = assay: C. reinhardtii growth inhibition by HPPD inhibiting herbicides; assay type: cell-based, Chlamydomonas reinhardtii
Source text: (§17) Bleaching herbicides with a mode of action in plastoquinone or tocopherol biosynthesis can inhibit algae growth (Tables 14 and 15). These effects can be partly reversed by intermediates of homogentisic acid biosynthesis (Table 14). To generate mutations conferring “coumarone-derivative herbicide” resistance in HPPD or HST genes, chemical or UV mutagenesis can be used. Especially unicellular organisms like Chlamydomonas reinhardtii or Scenedesmus obliquus are useful for identifying dominant mutations in herbicide resistance.
as §15

Scenedesmus obliquus = assay: S. obliquus growth inhibition; assay type: cell-based
Source text: as §17, §15

[10] = read-out: IC50 of growth inhibition

Which Ki (Arabidopsis HPPD) does the source give for `O=S1(=O)C(c2ccc(Cl)cc2Cl)=C(O)c2ncccc2N1CC(F)F` [Inhibitor 2, 3-(2,4-dichlorophenyl)-1-(2,2-difluoroethyl)-2,2-dioxo-pyrido[3,2-c]thiazin-4-ol] here?
The Ki was 13 nM.

What about the Ki (Chlamydomonas HPPD1) of the same molecule?
The Ki was 139 nM.

What about the Ki [1] of the same molecule?
Its Ki is 19 nM.

And the Ki [2]?
The Ki was 44 nM.

Which IC50 [3] does the source give for `CS(=O)(=O)c1ccc(C(=O)C2C(=O)CCCC2=O)c([N+](=O)[O-])c1` [Mesotrione, reference compound] here?
The IC50 was 30 µM.

And the IC50 [4, 10]?
Its IC50 is > 600 µM.

What about the IC50 [5, 10] of the same molecule?
The IC50 was > 600 µM.

What about the IC50 [6, 10] of the same molecule?
The IC50 was > 600 µM.

And the IC50 [7]?
Its IC50 is 450 µM.

And the IC50 [8]?
The IC50 was > 600 µM.

What about the IC50 [9, 10] of the same molecule?
The IC50 was 540 µM.

What does the source list for `C#Cc1ccc(-c2c(O)c3ncccc3oc2=O)c(C(F)(F)F)c1` [drawing 20]?
Growth inihibition [%] C. reinhardtii (CC-503) (C. reinhardtii (CC-503); c 1 * 10^−4 M): 61%; Growth inihibition [%] C. reinhardtii (CC-503) + Homogentisic acid (C. reinhardtii (CC-503); c 1 * 10^−4 M): 43%; Growth inihibition [%] C. reinhardtii (CC-503) (C. reinhardtii (CC-503); c 5 * 10^−4 M): 90%; Growth inihibition [%] C. reinhardtii (CC-503) + Homogentisic acid (C. reinhardtii (CC-503); c 5 * 10^−4 M): 67%

How did the “Growth inihibition [%] Scenedesmus obliquus” value (Scenedesmus obliquus; c 1 * 10^−4 M) turn out when `C#Cc1ccc(-c2c(O)c3ncccc3oc2=O)c(C(F)(F)F)c1` [drawing 21, 3-[4-ethynyl-2-(trifluoromethyl)phenyl]-4-hydroxy-pyrano[3,2-b]pyridin-2-one] was run?
The value was 100%.

What about the “Growth inihibition [%] Scenedesmus obliquus” value (Scenedesmus obliquus; c 1 * 10^−5 M) of the same molecule?
The value was 77%.

Which IC50 ([3]; strain CC1961 wild-type) does the source give for `Cc1c(-c2c(O)c3ncccc3oc2=O)ccc(S(C)(=O)=O)c1C1=NOC(C)C1` (stereo not drawn) [“coumarone-derivative herbicides” 1, 4-hydroxy-3-[2-methyl-3-(5-methyl-4,5-dihydroisoxazol-3-yl)-4-methylsulfonyl-phenyl]pyrano[3,2-b]pyridin-2-one] here?
Its IC50 is 760 µM.

And the IC50 ([4]; strain CMr04, read-out: IC50 of growth inhibition)?
Its IC50 is > 1000 µM.

And the IC50 ([5]; strain CMr05, read-out: IC50 of growth inhibition)?
Its IC50 is > 1000 µM.

And the IC50 ([6]; strain CMr06, read-out: IC50 of growth inhibition)?
Its IC50 is > 1000 µM.

And the IC50 [7]?
The IC50 was > 1000 µM.

And the IC50 [8]?
Its IC50 is 950 µM.

And the IC50 ([9]; strain CMr15, read-out: IC50 of growth inhibition)?
The IC50 was > 1000 µM.
